Source: patent EP4635500A1, “THERAPEUTIC AGENT FOR BACTERIAL INFECTION” (Sumitomo Pharma Co., Ltd., priority 2022, dated 2024)
Like-named read-outs stand apart in the source and are kept apart here.

Experiments:
[1] = test system: Serine-carbapenemase producing strains (N = 19); assay: MIC50/MIC90 for carbapenemase-producing isolates (Example 5, Table 6); type: cell-based; parameters: unit not given here; settings: Serine-carbapenemase (N = 19): KPC-2 (7), KPC-3 (8), KPC-38 (1), OXA-48 (2), OXA-181 (1)
A. baumannii = assay: MIC, Gram-negative bacteria clinically isolated in the United States (Example 8, Table 16); type: cell-based; settings: Acinetobacter baumannii; A. baumannii (80 strains) isolated in the United States; Compound A µg/mL in parentheses
[2] = test system: K. pneumoniae ATCCBAA-2344 producing KPC-2; assay: Systemic infection lethal mouse model, ED50 (Example 14, Table 31); settings: 7 days after infection
Protocol: (§1) The test strains on the agar medium were suspended in saline and adjusted to a Klett unit of about 200 using a Klett Photoelectric Colorimeter. […] Male ICR mice were inoculated intraperitoneally with 0.2 mL of the bacterial suspension. Two hours after the inoculation, saline or a solution for administering the agent at each concentration was administered subcutaneously to the mice in a single dose. The number of mice that survived from Day 1 to Day 7 after infection was recorded.

Klebsiella aerogenes = assay: MIC, broth microdilution, standard strains and Japanese clinical isolates (Example 5, Table 4); type: cell-based; settings: carbapenemase genes -
[3] = mouse, in vivo
[4] = cited from earlier work
E. coli = assay: MIC, Gram-negative bacteria clinically isolated in the United States (Example 8, Table 16); type: cell-based; settings: E. coli (80 strains) isolated in the United States, Compound A µg/mL in parentheses
[5] = test system: carbapenemase-producing Enterobacteriaceae (CPE); assay: MIC with human plasma or human serum albumin added (Example 12, Table 28); type: cell-based
Acinetobacter baumannii = assay: Systemic infection lethal mouse model, ED50 (Example 15, Table 34); settings: for ED50: Acinetobacter baumannii, in Mus musculus; for Survival rate: 7 days after infection
Protocol: The test strains on the agar medium were suspended in saline and adjusted to a Klett unit of about 200 using a Klett Photoelectric Colorimeter. […] Male ICR mice were inoculated intraperitoneally with 0.2 mL of the bacterial suspension. Two hours after the inoculation, saline or a solution for administering the agent of each concentration was administered subcutaneously to the mice in a single dose. The number of mice that survived from Day 1 to Day 7 after infection was recorded.

[6] = test system: E. coli ATCCBAA-2469 producing NDM-1; assay: Systemic infection lethal mouse model, ED50 (Example 14, Table 32); settings: 7 days after infection
Protocol: as §1

Serratia marcescens = assay: MIC, broth microdilution, standard strains and Japanese clinical isolates (Example 5, Table 4); type: cell-based
P. aeruginosa = assay: MIC, Gram-negative bacteria clinically isolated in the United States (Example 8, Table 16); type: cell-based; settings: Pseudomonas aeruginosa; P. aeruginosa (80 strains) isolated in the United States; Compound A µg/mL in parentheses
Klebsiella pneumoniae = assay: as above; type: cell-based; settings: K. pneumoniae (80 strains) isolated in the United States, Compound A µg/mL in parentheses
Fusobacterium spp. = assay: MIC, agar dilution, anaerobic bacteria (Example 9, Tables 20, 25); type: cell-based

colistin
0.25: MIC50 [1]
2: MIC90 [1]

C[C@@H](O)[C@H]1C(=O)N2C(C(=O)O)=C(S[C@@H]3CN[C@H](C(=O)N(C)C)C3)[C@H](C)[C@H]12 [MEPM, meropenem]
4 µg/mL: MIC ([5]; Escherichia coli, ATCCBAA2340, read-out: MICs of MEPM, E. coli ATCC BAA-2340 (KPC-3), Albumin 0% (standard condition)) | MIC ([5]; Escherichia coli, ATCCBAA2340, read-out: MICs of MEPM, E. coli ATCC BAA-2340 (KPC-3), Albumin 4%) | MIC ([5]; Escherichia coli, ATCCBAA2340, read-out: MICs of MEPM, E. coli ATCC BAA-2340 (KPC-3), Plasma 20%) | MIC ([5]; Escherichia coli, NCTC13476, read-out: MICs of MEPM, E. coli NCTC 13476 (IMP-1), Albumin 0% (standard condition)) | MIC ([5]; Escherichia coli, NCTC13476, read-out: MICs of MEPM, E. coli NCTC 13476 (IMP-1), Albumin 4%) | MIC ([5]; Klebsiella pneumoniae, ATCCBAA2524, read-out: MICs of MEPM, K. pneumoniae ATCC BAA-2524 (OXA-48), Plasma 50%) | MIC ([5]; read-out: MICs of MEPM, K pneumoniae NCTC13439 (VIM-1), Albumin 0% (standard condition)) | MIC90 (Klebsiella pneumoniae)
≤ 0.125 µg/mL: MIC50 (E. coli; Escherichia coli) | MIC90 (E. coli; Escherichia coli) | MIC50 (Klebsiella pneumoniae)
10%: Survival rate ([2]; Dose 10 mg/kg) | Survival rate ([2]; Dose 30 mg/kg) | Survival rate ([2]; Dose 60 mg/kg) | Survival rate (Acinetobacter baumannii; CDC-83 (Serine and metallo), Dose 100 mg/kg) | Survival rate (Acinetobacter baumannii; CDC-303 (Serine), Dose 50 mg/kg) | Survival rate (Acinetobacter baumannii; CDC-303 (Serine), Dose 200 mg/kg) | Survival rate ([6]; Dose 10 mg/kg)
2 µg/mL: MIC50 (A. baumannii) | MIC (Klebsiella aerogenes; KUB3614 Klebsiella aerogenes Clinical isolate) | MIC ([5]; Klebsiella pneumoniae, ATCCBAA2524, read-out: MICs of MEPM, K. pneumoniae ATCC BAA-2524 (OXA-48), Plasma 20%) | MIC ([5]; read-out: MICs of MEPM, K pneumoniae NCTC13439 (VIM-1), Albumin 4%) | MIC (Serratia marcescens; KUB3169 Serratia marcescens Clinical isolate, carbapenemase genes Unidentified, read-out: MIC) | MIC (Serratia marcescens; KUB3170 Serratia marcescens Clinical isolate, carbapenemase genes Unidentified) | MIC (Serratia marcescens; KUB3171 Serratia marcescens Clinical isolate, carbapenemase genes -) | MIC50 (P. aeruginosa)
0.5 µg/mL: MIC ([5]; Escherichia coli, ATCCBAA2340, read-out: MICs of MEPM, E. coli ATCC BAA-2340 (KPC-3), Plasma 50%) | MIC ([5]; Escherichia coli, NCTC13476, read-out: MICs of MEPM, E. coli NCTC 13476 (IMP-1), Plasma 50%) | MIC ([5]; Klebsiella pneumoniae, ATCCBAA2470, read-out: MICs of MEPM, K. pneumoniae ATCC BAA-2470 (NDM-1), Plasma 20%) | MIC ([5]; Klebsiella pneumoniae, ATCCBAA2470, read-out: MICs of MEPM, K. pneumoniae ATCC BAA-2470 (NDM-1), Plasma 50%) | MIC ([5]; Klebsiella pneumoniae, ATCCBAA2524, read-out: MICs of MEPM, K. pneumoniae ATCC BAA-2524 (OXA-48), Albumin 4%)
64 µg/mL: MIC90 (A. baumannii)
401 mg/kg: ED50 (Acinetobacter baumannii; read-out: ED50 of MEPM, value estimated by probit analysis, CDC-83 (Serine and metallo), cell prints ND, estimate in brackets, above the highest dose of 300 mg/kg)
32 µg/mL: MIC ([5]; Escherichia coli, ATCCBAA2469, read-out: MICs of MEPM, E. coli ATCC BAA-2469 (NDM-1), Albumin 0% (standard condition)) | MIC ([5]; Klebsiella pneumoniae, ATCCBAA2342, read-out: MICs of MEPM, K. pneumoniae ATCC BAA-2342 (KPC-3), Albumin 4%) | MIC ([5]; Klebsiella pneumoniae, ATCCBAA2344, read-out: MICs of MEPM, K. pneumoniae ATCC BAA-2344 (KPC-2), Albumin 4%) | MIC90 (P. aeruginosa)
0%: Survival rate (Acinetobacter baumannii; CDC-83 (Serine and metallo), Dose 30 mg/kg) | Survival rate (Acinetobacter baumannii; CDC-303 (Serine), Dose 100 mg/kg) | Survival rate ([6]; Dose 30 mg/kg) | Survival rate ([6]; Dose 60 mg/kg)
40%: Survival rate (Acinetobacter baumannii; CDC-83 (Serine and metallo), Dose 300 mg/kg)
20%: Survival rate (Acinetobacter baumannii; CDC-83 (Serine and metallo), Dose 200 mg/kg) | Survival rate (Acinetobacter baumannii; CDC-303 (Serine), Dose 300 mg/kg)
2%: human protein binding rate ([4]; Reference 2)
0.015 µg/mL: MIC ([5]; Escherichia coli, ATCC25922, read-out: MICs of MEPM, E. coli ATCC 25922 (quality control strain), Albumin 0% (standard condition))
≤ 0.12 µg/mL: MIC ([5]; Escherichia coli, ATCCBAA2469, read-out: MICs of MEPM, E. coli ATCC BAA-2469 (NDM-1), Plasma 20%) | MIC ([5]; Escherichia coli, ATCCBAA2469, read-out: MICs of MEPM, E. coli ATCC BAA-2469 (NDM-1), Plasma 50%) | MIC ([5]; read-out: MICs of MEPM, K pneumoniae NCTC13439 (VIM-1), Plasma 20%) | MIC ([5]; read-out: MICs of MEPM, K pneumoniae NCTC13439 (VIM-1), Plasma 50%)
1 µg/mL: MIC ([5]; Escherichia coli, NCTC13476, read-out: MICs of MEPM, E. coli NCTC 13476 (IMP-1), Plasma 20%) | MIC ([5]; Klebsiella pneumoniae, ATCCBAA2524, read-out: MICs of MEPM, K. pneumoniae ATCC BAA-2524 (OXA-48), Albumin 0% (standard condition))
8 µg/mL: MIC ([5]; Klebsiella pneumoniae, ATCCBAA2470, read-out: MICs of MEPM, K. pneumoniae ATCC BAA-2470 (NDM-1), Albumin 4%)
80%: Survival rate ([6]; Dose 100 mg/kg)
≥ 300 mg/kg: ED50 of MEPM (Acinetobacter baumannii; Acinetobacter baumannii CDC-303 (OXA-23, OXA-66), single s.c. dose, with cilastatin 100 mg/kg) | ED50 (Acinetobacter baumannii; sc, read-out: ED50 of MEPM)
46000 ng/mL: Cmax ([4]; human, 2 g intravenously for 3 hours every 8 hours, Reference 3)
0.03 µg/mL: MIC ([5]; Escherichia coli, ATCC25922, read-out: MICs of MEPM, E. coli ATCC 25922 (quality control strain), Albumin 4%) | MIC ([5]; Escherichia coli, ATCC25922, read-out: MICs of MEPM, E. coli ATCC 25922 (quality control strain), Plasma 20%) | MIC ([5]; Escherichia coli, ATCC25922, read-out: MICs of MEPM, E. coli ATCC 25922 (quality control strain), Plasma 50%)
16 µg/mL: MIC ([5]; Escherichia coli, ATCCBAA2469, read-out: MICs of MEPM, E. coli ATCC BAA-2469 (NDM-1), Albumin 4%) | MIC ([5]; Klebsiella pneumoniae, ATCCBAA2342, read-out: MICs of MEPM, K. pneumoniae ATCC BAA-2342 (KPC-3), Albumin 0% (standard condition)) | MIC ([5]; Klebsiella pneumoniae, ATCCBAA2342, read-out: MICs of MEPM, K. pneumoniae ATCC BAA-2342 (KPC-3), Plasma 20%) | MIC ([5]; Klebsiella pneumoniae, ATCCBAA2342, read-out: MICs of MEPM, K. pneumoniae ATCC BAA-2342 (KPC-3), Plasma 50%) | MIC ([5]; Klebsiella pneumoniae, ATCCBAA2344, read-out: MICs of MEPM, K. pneumoniae ATCC BAA-2344 (KPC-2), Albumin 0% (standard condition)) | MIC ([5]; Klebsiella pneumoniae, ATCCBAA2344, read-out: MICs of MEPM, K. pneumoniae ATCC BAA-2344 (KPC-2), Plasma 20%) | MIC ([5]; Klebsiella pneumoniae, ATCCBAA2344, read-out: MICs of MEPM, K. pneumoniae ATCC BAA-2344 (KPC-2), Plasma 50%) | MIC ([5]; Klebsiella pneumoniae, ATCCBAA2470, read-out: MICs of MEPM, K. pneumoniae ATCC BAA-2470 (NDM-1), Albumin 0% (standard condition))
≥ 40%: %fT > 8 µg/mL [3]
50%: Survival rate ([2]; Dose 100 mg/kg)
0.12 µg/mL: MIC (Klebsiella aerogenes; KUB3615 Klebsiella aerogenes Clinical isolate)
6550 mg/kg: ED50 (Acinetobacter baumannii; read-out: ED50 of MEPM, value estimated by probit analysis, CDC-303 (Serine), cell prints ND, estimate in brackets, above the highest dose of 300 mg/kg)
≤0.125 to 16 µg/mL: MICrange (E. coli)

Cc1ncc([N+](=O)[O-])n1CCO [Metronidazole]
0.25 µg/mL: MIC90 (Fusobacterium spp.; Fusobacterium, Fusobacterium spp.) | MIC (Fusobacterium spp.; Fusobacterium, KUB No. 6693 Fusobacterium nucleatium) | MIC (Fusobacterium spp.; KUB No. 2741 Fusobacterium varium ATCC 27725) | MIC (Fusobacterium spp.; KUB No. 6702 Fusobacterium necrophorum) | MIC (Fusobacterium spp.; KUB No. 6710 Fusobacterium necrophorum)
0.5 µg/mL: MIC (Fusobacterium spp.; KUB No. 6695 Fusobacterium necrophorum)
≤ 0.12 µg/mL: MIC50 (Fusobacterium spp.; Fusobacterium spp.) | MIC (Fusobacterium spp.; Fusobacterium, KUB No. 6692 Fusobacterium sp.) | MIC (Fusobacterium spp.; Fusobacterium, KUB No. 6708 Fusobacterium necrophorun) | MIC (Fusobacterium spp.; Fusobacterium, KUB No. 6715 Fusobacterium sp.) | MIC (Fusobacterium spp.; Fusobacterium, KUB No. 6716 Fusobacterium nuncleatum) | MIC (Fusobacterium spp.; Fusobacterium, KUB No. 6719 Fusobacterium sp.) | MIC (Fusobacterium spp.; Fusobacterium, KUB No. 6725 Fusobacterium sp.) | MIC (Fusobacterium spp.; KUB No. 2742 Fusobacterium nucleatum ATCC 25586) | MIC (Fusobacterium spp.; KUB No. 6694 Fusobacterium necrophorum) | MIC (Fusobacterium spp.; KUB No. 6696 Fusobacterium necrophorum) | MIC (Fusobacterium spp.; KUB No. 6697 Fusobacterium nucleatum) | MIC (Fusobacterium spp.; KUB No. 6698 Fusobacterium nucleatum) | MIC (Fusobacterium spp.; KUB No. 6699 Fusobacterium necrophorum) | MIC (Fusobacterium spp.; KUB No. 6700 Fusobacterium nucleatum) | MIC (Fusobacterium spp.; KUB No. 6720 Fusobacterium nucleatum) | MIC (Fusobacterium spp.; KUB No. 6724 Fusobacterium nucleatum)
≤0.12 to 0.5 µg/mL: MICrange (Fusobacterium spp.; Fusobacterium spp.)
